In PubChem BioAssay AID1963960 (Molecular Pharmacology Branch, DTP, NCI, 2024):

System: MDA-MB-468 spheroids with HUVEC/MSC, viability
Assay: Anticancer human tumor MDA-MB-468 cell line growth inhibition [PI3K];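 further: spheroids exposed to agents for seven days before readout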;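 on viability, T/C: 100% = DMSO vehicle control viability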
Settings: for IC50: curve of first compound; for viability, T/C: stronger effect = lower value
How it was run: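 Three cell types, namely tumor cells, endothelial cells and mesenchymal stem cells, formed each spheroid. Combinations with four PI3K inhibitors were screened at clinically achievable concentrations decreasing by half-log, and spheroid viability was recorded.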

[1] = second compound 0.0316 µM, first compound 0.0316 µM
[2] = second compound 0.0316 µM, first compound 0.1 µM
[3] = second compound 0.0316 µM, first compound 0.316 µM
[4] = second compound 0.0316 µM, first compound 1 µM
[5] = second compound 0.0316 µM, first compound 3.16 µM
[6] = second compound 0.0316 µM, first compound 10 µM
[7] = second compound 0.1 µM, first compound 0.0316 µM
[8] = second compound 0.1 µM, first compound 0.1 µM
[9] = second compound 0.1 µM, first compound 0.316 µM
[10] = second compound 0.1 µM, first compound 1 µM
[11] = second compound 0.1 µM, first compound 3.16 µM
[12] = second compound 0.1 µM, first compound 10 µM
[13] = second compound 0.316 µM, first compound 0.0316 µM
[14] = second compound 0.316 µM, first compound 0.1 µM
[15] = second compound 0.316 µM, first compound 0.316 µM
[16] = second compound 0.316 µM, first compound 1 µM
[17] = second compound 0.316 µM, first compound 3.16 µM
[18] = second compound 0.316 µM, first compound 10 µM
[19] = second compound 1 µM, first compound 0.0316 µM
[20] = second compound 1 µM, first compound 0.1 µM
[21] = second compound 1 µM, first compound 0.316 µM
[22] = second compound 1 µM, first compound 1 µM
[23] = second compound 1 µM, first compound 3.16 µM
[24] = second compound 1 µM, first compound 10 µM
[25] = second compound 3.16 µM, first compound 0.0316 µM
[26] = second compound 3.16 µM, first compound 0.1 µM
[27] = second compound 3.16 µM, first compound 0.316 µM
[28] = second compound 3.16 µM, first compound 1 µM
[29] = second compound 3.16 µM, first compound 3.16 µM
[30] = second compound 3.16 µM, first compound 10 µM
[31] = second compound 10 µM, first compound 0.0316 µM
[32] = second compound 10 µM, first compound 0.1 µM
[33] = second compound 10 µM, first compound 0.316 µM
[34] = second compound 10 µM, first compound 1 µM
[35] = second compound 10 µM, first compound 3.16 µM
[36] = second compound 10 µM, first compound 10 µM

CC(Cn1ccc(-c2ccc(C#N)c(Cl)c2)n1)NC(=O)c1cc(C(C)O)[nH]n1 (stereo unspecified) + Cc1nc(NC(=O)N2CCCC2C(N)=O)sc1-c1ccnc(C(C)(C)C(F)(F)F)c1
IC50 (second compound 0.0316 µM): > 10000 nM
IC50 (second compound 0.1 µM): > 10000 nM
IC50 (second compound 0.316 µM): > 10000 nM
IC50 (second compound 1 µM): > 10000 nM
IC50 (second compound 3.16 µM): > 10000 nM
IC50 (second compound 10 µM): < 31.6 nM
viability, T/C [1]: 82.4%
viability, T/C [2]: 93%
viability, T/C [3]: 88.3%
viability, T/C [4]: 111%
viability, T/C [5]: 72%
viability, T/C [6]: 50.6%
viability, T/C [7]: 89.4%
viability, T/C [8]: 93.9%
viability, T/C [9]: 79.9%
viability, T/C [10]: 99%
viability, T/C [11]: 64.6%
viability, T/C [12]: 55.7%
viability, T/C [13]: 88%
viability, T/C [14]: 86.5%
viability, T/C [15]: 80.6%
viability, T/C [16]: 92.2%
viability, T/C [17]: 61.5%
viability, T/C [18]: 54%
viability, T/C [19]: 86.3%
viability, T/C [20]: 71.1%
viability, T/C [21]: 64.1%
viability, T/C [22]: 70.4%
viability, T/C [23]: 61.2%
viability, T/C [24]: 50.5%
viability, T/C [25]: 74.4%
viability, T/C [26]: 54.2%
viability, T/C [27]: 64.4%
viability, T/C [28]: 61.3%
viability, T/C [29]: 53.4%
viability, T/C [30]: 49.2%
viability, T/C [31]: 33.4%
viability, T/C [32]: 28.8%
viability, T/C [33]: 28.4%
viability, T/C [34]: 29.9%
viability, T/C [35]: 28.3%
viability, T/C [36]: 21.5%

CC1(C)CCC(Nc2ncc(C(F)(F)F)c(-c3c[nH]c4c(P(C)(C)=O)c(C#N)ccc34)n2)CN1 (stereo unspecified) + Cc1nc(NC(=O)N2CCCC2C(N)=O)sc1-c1ccnc(C(C)(C)C(F)(F)F)c1
IC50 (second compound 0.0316 µM): < 31.6 nM
IC50 (second compound 0.1 µM): < 31.6 nM
IC50 (second compound 0.316 µM): < 31.6 nM
IC50 (second compound 1 µM): < 31.6 nM
IC50 (second compound 3.16 µM): < 31.6 nM
IC50 (second compound 10 µM): < 31.6 nM
viability, T/C [1]: 12.9%
viability, T/C [2]: 13.4%
viability, T/C [3]: 10.2%
viability, T/C [4]: 12.3%
viability, T/C [5]: 10.3%
viability, T/C [6]: 1.66%
viability, T/C [7]: 13.4%
viability, T/C [8]: 13.6%
viability, T/C [9]: 11%
viability, T/C [10]: 11.7%
viability, T/C [11]: 9.67%
viability, T/C [12]: 1.49%
viability, T/C [13]: 16.6%
viability, T/C [14]: 10.6%
viability, T/C [15]: 9.57%
viability, T/C [16]: 11.6%
viability, T/C [17]: 9.4%
viability, T/C [18]: 1.34%
viability, T/C [19]: 13.8%
viability, T/C [20]: 10.9%
viability, T/C [21]: 9.4%
viability, T/C [22]: 10.7%
viability, T/C [23]: 7.46%
viability, T/C [24]: 1.27%
viability, T/C [25]: 15.4%
viability, T/C [26]: 10.6%
viability, T/C [27]: 9.84%
viability, T/C [28]: 9.67%
viability, T/C [29]: 5.93%
viability, T/C [30]: 1.32%
viability, T/C [31]: 11%
viability, T/C [32]: 7.92%
viability, T/C [33]: 8.97%
viability, T/C [34]: 6.88%
viability, T/C [35]: 4.2%
viability, T/C [36]: 0.98%

Cn1nccc1Nc1nccc(-c2ccn(C(CO)c3ccc(Cl)c(F)c3)c(=O)c2)n1 (stereo unspecified) + Cc1nc(NC(=O)N2CCCC2C(N)=O)sc1-c1ccnc(C(C)(C)C(F)(F)F)c1
IC50 (second compound 0.0316 µM): > 10000 nM
IC50 (second compound 0.1 µM): > 10000 nM
IC50 (second compound 0.316 µM): > 10000 nM
IC50 (second compound 1 µM): > 10000 nM
IC50 (second compound 3.16 µM): 1600 nM
IC50 (second compound 10 µM): < 31.6 nM
viability, T/C [1]: 88.7%
viability, T/C [2]: 85.4%
viability, T/C [3]: 84%
viability, T/C [4]: 116%
viability, T/C [5]: 107%
viability, T/C [6]: 63.3%
viability, T/C [7]: 92.2%
viability, T/C [8]: 94.9%
viability, T/C [9]: 81.7%
viability, T/C [10]: 93.3%
viability, T/C [11]: 113%
viability, T/C [12]: 53.8%
viability, T/C [13]: 103%
viability, T/C [14]: 112%
viability, T/C [15]: 95.9%
viability, T/C [16]: 109%
viability, T/C [17]: 61.1%
viability, T/C [18]: 63.8%
viability, T/C [19]: 81.3%
viability, T/C [20]: 75.6%
viability, T/C [21]: 80.4%
viability, T/C [22]: 67.3%
viability, T/C [23]: 62.9%
viability, T/C [24]: 53.9%
viability, T/C [25]: 82.3%
viability, T/C [26]: 64.1%
viability, T/C [27]: 63.4%
viability, T/C [28]: 59.7%
viability, T/C [29]: 42.3%
viability, T/C [30]: 32.3%
viability, T/C [31]: 39.6%
viability, T/C [32]: 24.8%
viability, T/C [33]: 29.6%
viability, T/C [34]: 20.2%
viability, T/C [35]: 17.6%
viability, T/C [36]: 14.5%
